Laboratory results published in article PMC4183595, “Study on the Main Components Interaction from Flos Lonicerae and Fructus Forsythiae and Their Dissolution In Vitro and Intestinal Absorption in Rats” (PLoS ONE, 2014).
Read-outs that look alike come from different tables or passages of the source.

What was measured:
[1] = Rat in vivo pharmacokinetics study after oral administration of product A, B or C; set-up: species or system Male Sprague-Dawley (SD) rats; AUC 0→t in product C group, increased to % compared to that in product A or B groups: concentration or dose not given beside the values; conditions: for AUC(0-t) / AUC(0-inf) / MRT / half-life / Tmax / Cmax: male, Sprague-Dawley, rat, plasma; for AUC(0-t) / AUC(0-inf) / MRT / half-life / Tmax: 10 mL·kg^−1; for AUC(0-t): oral product C group; for AUC(0-inf) / MRT / half-life / Tmax / Cmax: po, 10 mL·kg^−1, rats; for half-life: read-out: T 1/2z; for Cmax: mean±SD; for AUC 0→t in product C group, increased to % compared to that in product A or B groups: product C versus product A or B
Method: Product A (extract mixed with FLJ extract and water, (1∶1, v / v )), product B (extract mixed with FF extract and water, (1∶1, v / v )) and product C (extract mixed with FLJ and FF extracts, (1∶1, v / v )) were given to oral administration to rats, respectively.
Male SD rats (∼250 g) were kept in an environmentally controlled breeding room (temperature: 20±2°C, relative humidity: 60±5%) for 1 week. […] The rats were randomly divided into three groups with no less than six rats in each group to receive various administrations at a single oral dose (10 mL·kg^−1) by gastric gavage. […] Subsequently, plasma was prepared by centrifugation at 1,816×g, 4°C for 7 min, and immediately analyzed or stored at −70°C for further analysis.
The main pharmacokinetic parameters including the peak plasma concentration (C max), the time to C max (T max), the AUC from 0 to infinity (AUC 0–∞), the AUC form 0 to time (AUC 0–t), mean residence time (MRT), and terminal elimination half-life (T 1/2z) were calculated by the non-compartmental analysis of plasma concentration vs. time data using the “DAS 2.1.1” software (Mathematical Pharmacology Professional Committee of China, Shanghai, China).

Caco-2 cells = assay: In vitro Caco-2 monolayer model, apical to basolateral transport (P app); assay type: in vitro ADME, human; conditions: Caco-2 monolayer, HBSS pH 6.0, apical to basolateral
Method: Caco-2 cells were cultured in high glucose DMEM with 10% fetal bovine serum, 1% nonessential amino acids. Cells were cultured in a humidified atmosphere of 5% CO2 at 37°C. After reaching 80% confluens, Caco-2 cells were harvested with 0.05% trypsin-EDTA solution and seeded on top of CC inserts in 6-well plates, which has a surface area of 4.2 cm^2, at a density of 1.0×10^5 cells/cm^2. The protocols for cell culture in Transwell inserts were similar to those described previously.
Hank’s balanced salt solution (HBSS) was used as the transport buffer for the transport study in Caco-2 cells monolayer model. It was prepared by dissolving 9.5 grams of commercial available HBSS powder in 1000 mL water.
Cell culture experiments were described previously. Briefly, after culture medium was aspirated, the cell monolayers were washed three times with blank HBSS. […] The monolayers were incubated with the blank HBSS for 1 h with 37°C. Thereafter the incubation medium was aspirated. Afterwards, a solution containing the compound was loaded onto the apical side. The amounts of transported compound were measured as a function of time. […] The samples were taken at 0, 1, 2, 3 and 4 h after incubation. At the end of the transport experiment, integrity of the monolayer was monitored by TEER value.

P-gp, MRP2 and BCRP = tested on: P-gp, MRP2 and BCRP; set-up: method as in PMID 24035225, PMID 25442264; conditions: previous study; ref [21]–[22]; cited from earlier work
[2] = single oral dose 10 mL·kg^−1 of product A (FLJ extract and water 1:1)
[3] = single oral dose 10 mL·kg^−1 of product C (FLJ and FF extracts 1:1)
[4] = single oral dose 10 mL·kg^−1 of product B (FF extract and water 1:1)

SMILES	AUC(0-t) ([1]; rats) [µg·h/mL]	AUC(0-inf) ([1]; oral product A) [µg·h/mL]	MRT ([1]; oral product A) [h]	half-life ([1]; oral product A) [h]	AUC(0-inf) ([1]; oral product C) [µg·h/mL]	MRT ([1]; oral product C) [h]	Tmax ([1]; oral product C) [h]	half-life ([1]; oral product C) [h]	Cmax [1, 2] [ng/mL]	Cmax [1, 3] [ng/mL]	AUC 0→t in product C group, increased to % compared to that in product A or B groups ([1]; rats, oral) [%]	P app in product C group, % compared to that in product A group (Caco-2 cells) [%]	efflux transporters influencing the intestinal absorption (P-gp, MRP2 and BCRP)	Tmax ([1]; oral product A) [h]	also measured
O=C(/C=C/c1ccc(O)c(O)c1)O[C@@H]1C[C@](O)(C(=O)O)C[C@@H](OC(=O)/C=C/c2ccc(O)c(O)c2)[C@H]1O [3,5-dicaffeoylquinic acid]	0.0824	0.0715	7.3	4.87 ± 1.29	0.0897	9.63	0.167	7.33 ± 0.79	27.6 ± 4.73	30.8 ± 5.66	162	164	influenced by P-gp, MRP2 and BCRP		
O=C(C=Cc1ccc(O)c(O)c1)OC1CC(O)(C(=O)O)CC(O)C1OC(=O)C=Cc1ccc(O)c(O)c1 (centres unmarked) [3,4-dicaffeoylquinic acid]	0.0244	0.0229	7.03	4.92 ± 0.617	0.0388	8.95	0.2	6.82 ± 2.38	4.79 ± 1.87	12.5 ± 4.07	318	137	influenced by P-gp, MRP2 and BCRP	0.25	
C[C@@H]1O[C@@H](OC[C@H]2O[C@@H](OCCc3ccc(O)c(O)c3)[C@H](O)[C@@H](O)[C@@H]2OC(=O)/C=C/c2ccc(O)c(O)c2)[C@H](O)[C@H](O)[C@H]1O [Forsythoside A]	0.42				0.773	7.53	0.167	5.98 ± 0.357		182 ± 38.6	230		affected by P-gp and MRP2, not BCRP		AUC(0-inf) ([1]; oral product B): 0.229 µg·h/mL; MRT ([1]; oral product B): 3.75 h; Tmax ([1]; oral product B): 0.167 h; half-life ([1]; oral product B): 4.6 ± 1.04 h; Cmax [1, 4]: 102 ± 6.19 ng/mL; P app in product C group, % compared with that in product B group (Caco-2 cells): 165%
O=c1c(-c2ccc(O)cc2)coc2cc(O)cc(O)c12 [Genistein]		0.24	10.8	10 ± 1.27	0.0286	7.72	0.25	6.85 ± 1.13	5.09 ± 2.46	2.3 ± 1		293		0.233	AUC 0→t in product C group compared with product A or B group ([1]; rats, oral, same dosages administrated): lower significantly
O=c1c(O[C@@H]2O[C@H](CO)[C@H](O)[C@H](O)[C@H]2O)c(-c2ccc(O)c(O)c2)oc2cc(O)cc(O)c12 [Hyperoside]		0.00989	7.27	6.83 ± 1.63	0.0246	6.45	0.167	7.05 ± 0.688	5.25 ± 0.859	22.1 ± 1.9		129		0.167	AUC(0-inf) ([1]; oral product B): 0.0104 µg·h/mL; MRT ([1]; oral product B): 6.82 h; half-life ([1]; oral product B): 6.68 ± 0.487 h; Cmax [1, 4]: 9.68 ± 4.39 ng/mL; bioavailability in product C group compared with that in product A group ([1]; rats, oral): significantly higher; bioavailability in product C group compared with that in product B group ([1]; rats, oral): significantly higher; P app in product C group, % compared with that in product B group (Caco-2 cells): 195%
O=c1c(O[C@@H]2O[C@H](CO)[C@@H](O)[C@H](O)[C@H]2O)c(-c2ccc(O)cc2)oc2cc(O)cc(O)c12 [Astragalin]	0.00417	0.00432	8.15	7.67 ± 0.263	0.00626	11.3	0.167	11.6 ± 1.72	0.441 ± 0.166	0.551 ± 0.207	145	131		0.167	
O=c1c(-c2ccc(O)cc2)coc2cc(O[C@@H]3O[C@H](CO)[C@@H](O)[C@H](O)[C@H]3O)cc(O)c12 [Genistin]	0.000548	0.00063		8.03 ± 0.305	0.000822		0.333	9.2 ± 0.455	0.055 ± 0.0154	0.0753 ± 0.0285	131	165		0.267	
COC(=O)C1=CO[C@@H](O[C@@H]2O[C@H](CO)[C@@H](O)[C@H](O)[C@H]2O)[C@@H]2[C@@H](C)[C@@H](O)C[C@H]12 [Loganin]	0.108	0.0929	5.82	2.07 ± 0.205	0.14	7.83	0.267	7.33 ± 0.273	28 ± 4.93	54.7 ± 8.63	121	211		0.35	
O=c1cc(-c2ccc(O)c(O)c2)oc2cc(O[C@@H]3O[C@H](CO)[C@@H](O)[C@H](O)[C@H]3O)cc(O)c12 [Luteoloside]	0.00476	0.00297		6.38 ± 0.22	0.005		0.167	9.65 ± 1.43	1.26 ± 0.655	2.48 ± 1.34	137	174		0.167	
